Test results from patent US20210253550A1, “THERAPEUTIC COMPOUNDS AND COMPOSITIONS” (eXIthera Pharmaceuticals, Inc., priority 2018, published 2021).

What was measured:
[1] = test system: blood coagulation components; assay type: in vivo
Protocol: The following parameters and endpoints were evaluated in this study: mortality, body weight, physical, clinical pathology parameters (hematology and coagulation), coagulation time, and bioanalytical parameters.
The vehicle and test article were administered via intravenous (IV) infusion once on Day 1 for 135 minutes (initiated 30 minutes prior to starting the Cardiopulmonary Bypass (CPB) and continuing for 105 minutes of CPB). Group 2 animals received a […] IV bolus dose immediately prior to the start of IV infusion. Group 3, 4, and 5 animals received a 10 mg/kg IV bolus dose prior to the start of the IV infusion; with the CPB machine primed with test article at 10 μg/mL.
Infusion of the Compound 1 was started 30 minutes prior to the animal being placed on the CPB pump. The CPB pump was primed with 0.9% saline.
Venous and arterial sheaths were flushed with the Compound 1 at a concentration of 10 μg/mL. An IV bolus dose of the test article was administered immediately prior to the start of the infusion. Infusion of Compound 1 was started 30 minutes prior to the animal being placed on the CPB pump. The CPB […] was primed with 10 μg/mL of the Compound 1 prior to initiation of the CPB pump.
An IV bolus dose of the Compound 1 was administered immediately prior to the start of the infusion. Infusion of Compound 1 was started 30 minutes prior to the animal being placed on the CPB pump.

[2] = Solubility of Compound 1.HCl measured gravimetrically in solvents/solvent mixtures; assay type: physicochemical; details: thermodynamic from solid, slurried 48 h, gravimetric
Protocol: Solubility of Compound 1.HCl was measured gravimetrically in 12 different solvents and solvent mixtures at 15 and 45° C. About 90 mg of the compound was dispensed in 1 mL of the solvent/solvent mixture and slurried for 48 h. The vials were centrifuged. The supernatant was collected and left for slow evaporation under vacuum at 45° C. The solids obtained after evaporation were used to determine the solubility of Compound 1.HCl and analyzed by XRPD for any new form. Table 1 represents the solubility of Compound 1.HCl in different solvents.

[3] = Dynamic Vapor Sorption (DVS) with XRPD before and after; assay type: physicochemical
Protocol: Samples were analyzed using an Aquadyne DVS-2 gravimetric water sorption analyzer. The relative humidity was adjusted between 2-95% and the weight of the sample was continuously monitored and recorded with respect to the relative humidity and time.
The same material was subjected under the Dynamic Vapor Sorption (DVS, FIGS. 3 and 4).
The purity of the sample was also verified by ^1H-NMR. […] The amorphous salt was also studied by DVS. During Desorption 1, (from 50 to 0% RH), a weight loss of around 3% was observed whilst, during Sorption 1 (from 0 to 95% RH), a weight gain of 10%. Desorption 2 indicates a weight loss of 3% was observed and during Sorption 2 (from 0 to 95% RH) the weight loss was continued to additional 1%. In the final stage, Desorption 3 (from 95 to 50% RH), around 1% weight loss was observed (see FIG. 17). The amorphous Compound 1.HCl was analyzed by XRPD and optical microscopy post-DVS experiment.

[4] = Relative stability of the forms: competitive slurries of Pattern A and amorphous form; assay type: physicochemical; details: Pattern A + amorphous form in TBME, IPA and THF:H2O (95:5), RT and 45° C.
[5] = Heating of amorphous salt at 140° C., XRPD and DSC; assay type: physicochemical; details: amorphous salt heated to 140° C. for 30 min (Sample D9)
Protocol: FIG. 18 illustrates the post-DVS XRPD comparison with the amorphous and Pattern A (original salt). The amorphous salt was heated to 140° C. for 30 min and characterized by XRPD and DSC (Sample ID: D9). […] The DSC thermogram in FIG. 21 also confirms the conversion of amorphous to crystalline (Pattern A) after heating the amorphous sample at 140° C.

[6] = amorphous salt (Sample C1), from 0 to 95% RH

For `C[C@@H](NC(=O)N1C(=O)[C@H](Cc2ccnc(N)c2)[C@H]1C(=O)O)C1CCCCC1` [Compound 1, (2S,3R)-3-[(2-aminopyridin-4-yl)methyl]-1-{[(1R)-1-cyclohexylethyl]carbamoyl}-4-oxoazetidine-2-carboxylic acid], the morbidity or mortality ([1]; dog, in vivo) was “not associated with any increases in morbidity or mortality”, the survival ([1]; dog, in vivo) was “All animals survived to study termination” and the “prevention of activation of blood coagulation in components of cardiopulmonary bypass” value ([1]; hound CPB model, 105-minute CPB run) was “successful in preventing the activation of blood coagulation in components of cardiopulmonary bypass”. For the same molecule, the “pressure gradient across the membrane oxygenator” value ([1]; hound CPB model, IV infusion at multiple doses, entire pump run) was “stayed consistent through the entire run”, the “selectivity of anticoagulant effects” value ([1]; hound CPB model, coagulation parameters) was “selective to inhibition of activated partial thromboplastin time (aPTT)” and the “aPTT during Compound 1 infusion and prior to CPB” value ([1]; hound, all animals, IV infusion 3 or 10 mg/kg/hr) was “moderately to markedly prolonged”. The “aPTT following cessation of infusion and CPB, at the conclusion of the study” value ([1]; hound, all groups) was “remained moderately prolonged”.
For `C[C@@H](NC(=O)N1C(=O)[C@H](Cc2ccnc(N)c2)[C@H]1C(=O)O)C1CCCCC1.Cl` [Compound 1.HCl], the solubility at 48 h ([2]; aqueous with cosolvent or surfactant or cyclodextrin, MeOH:H2O (1:1), 15° C.) was greater than 100000 µg/mL, the solubility at 48 h ([2]; aqueous with cosolvent or surfactant or cyclodextrin, MeOH:H2O (1:1), 45° C.) was greater than 100000 µg/mL and the solubility at 48 h ([2]; organic solvent or mixture, Acetone, 15° C.) was 2200 µg/mL. The solubility at 48 h ([2]; organic solvent or mixture, Acetone, 45° C.) was 4800 µg/mL, the solubility at 48 h ([2]; organic solvent or mixture, EtOAc, 15° C.) was 200 µg/mL and the solubility at 48 h ([2]; organic solvent or mixture, EtOAc, 45° C.) was 2100 µg/mL. It also gave a solubility at 48 h ([2]; organic solvent or mixture, EtOH:H2O (95:5), 15° C.) greater than 100000 µg/mL, a solubility at 48 h ([2]; organic solvent or mixture, EtOH:H2O (95:5), 45° C.) greater than 100000 µg/mL and a solubility at 48 h ([2]; organic solvent or mixture, Heptane, 15° C.) of less than 1000 µg/mL. The solubility at 48 h ([2]; organic solvent or mixture, Heptane, 45° C.) was 2100 µg/mL, the solubility at 48 h ([2]; organic solvent or mixture, IPA, 15° C.) was 17000 µg/mL and the solubility at 48 h ([2]; organic solvent or mixture, IPA, 45° C.) was 43000 µg/mL. For the same molecule, the solubility at 48 h ([2]; organic solvent or mixture, IPA:H2O (9:1), 15° C.) was greater than 100000 µg/mL, the solubility at 48 h ([2]; organic solvent or mixture, IPA:H2O (9:1), 45° C.) was greater than 100000 µg/mL and the solubility at 48 h ([2]; organic solvent or mixture, MeCN, 15° C.) was 700 µg/mL. For the same molecule, the solubility at 48 h ([2]; organic solvent or mixture, MeCN, 45° C.) was 700 µg/mL, the solubility at 48 h ([2]; organic solvent or mixture, MeOH, 15° C.) was greater than 100000 µg/mL and the solubility at 48 h ([2]; organic solvent or mixture, MeOH, 45° C.) was greater than 100000 µg/mL. It also gave a solubility at 48 h ([2]; organic solvent or mixture, TBME, 15° C.) of 400 µg/mL, a solubility at 48 h ([2]; organic solvent or mixture, TBME, 45° C.) of 4100 µg/mL and a solubility at 48 h ([2]; organic solvent or mixture, THF, 15° C.) of 1200 µg/mL. The solubility at 48 h ([2]; organic solvent or mixture, THF, 45° C.) was 6700 µg/mL, the solubility at 48 h ([2]; Water, 15° C.) was greater than 100000 µg/mL and the solubility at 48 h ([2]; Water, 45° C.) was greater than 100000 µg/mL. For the same molecule, the “crystalline pattern by XRPD after DVS” value ([3]; crystalline Pattern A, after DVS) was “did not change”, the “moisture uptake (DVS)” value ([3]; crystalline Pattern A, relative humidity levels between 0-95%) was “about 4%” and the “solid form by XRPD of competitive slurries after 24 h” value [4] was “did not exhibit any change in the crystalline form (Pattern A)”. For the same molecule, the “solid form by XRPD of competitive slurries at t=5 min” value [4] was “transformed to Pattern A”.
In the case of `C[C@@H](NC(=O)N1C(=O)[C@H](Cc2ccnc(N)c2)[C@H]1C(=O)O)C1CCCCC1.Cl` [amorphous Compound 1.HCl], the “weight loss, DVS Desorption 2” value ([3]; amorphous salt (Sample C1)) was 3%, the “solid form by XRPD post-DVS” value ([3]; amorphous salt (Sample C1), post-DVS experiment) was “reverts back to crystalline salt (Pattern A)” and the “additional weight loss, DVS Sorption 2” value [3, 6] was 1%. For the same molecule, the “weight gain, DVS Sorption 1” value [3, 6] was 10%, the “weight loss, DVS Desorption 1” value ([3]; amorphous salt (Sample C1), from 50 to 0% RH) was “around 3%” and the “weight loss, DVS Desorption 3” value ([3]; amorphous salt (Sample C1), from 95 to 50% RH) was “around 1%”. The “solid form by XRPD after heating” value [5] was “transformation to Pattern A (crystalline salt)”.
